This note sets out measurements from patent US4563467A, “Derivatives of N-iminopyridinium betaines having anti-hypertensive and salidiuretic activity and their preparation” (Provesan S.A., priority 1983, dated 1986).

Data set [1] in a line: Diuretic activity (method of Taylor and Topliss): elimination of urine and urine parameters over 8 hours. The format is in vivo, Male Sprague-Dawley (HC/CFY) rats. To be noted: rat; for ED50: po, from regression of log dose against percentage effect. As for the experimental part:
ACTIVITY Method of R. M. Taylor and […]. Med. Pharm. Chem. 1962, 4, 312 Male Sprague-Dawley (HC/CFY) rats weighting between 150 and 200 grams are used. The animals are kept without food and water for 16 hours before the start of the test. The products are administered as a suspension in a 0.5% strength carboxymethylcellulose suspension in a 0.9% strength sodium chloride solution, using a probang, the amount administered being 50 ml/kg of body weight. […] The following parameters are determined in the urine: volume (ml/kg); sodium and potassium (milliequivalents/kg/8 h) (flame photometer); chloride (milliequivalents/kg/8 h) (chloride-meter); pH/8 h (pH-meter) and osmotic pressure (osmotic millimols/kg/8 h) (osmometer). The comparsion animals are given the 0.5% strength carboxymethylcellulose suspension in a 0.9% strength sodium chloride solution in an amount of […] of body weight.

Data set [2] in a line: Acute toxicity, oral, mouse. Format: in vivo, CFLP-RE albino mice. As for the experimental part:
The product is administered orally in suspension in 5% strength gum arabic to CFLP-RE albino mice weighing 20-25 g and to CFY-RE Sprague-Dawley rats weighing 125-175 g. The volume administered is 25 ml/kg in the mouse except for the maximum dose of 12,800 mg/kg where a volume of 50 ml/kg is administered, and 10 ml/kg in the rat except for the maximum dose of 12,800 mg/kg where a volume of 30 ml/kg is administered.
It was impossible to determine the 50 percent lethal dose since no deaths occurred.

The structures appear in SMILES notation. Counter-ions that a name gives are not always drawn. Like-named read-outs stand apart in the source and are kept apart here.

With `Cc1cc(C)[n+]([N-]C(=O)c2ccc(Cl)c(S(N)(=O)=O)c2)c(C)c1` [Example 2, 1-[(4-chloro-3-sulfamylbenzoyl)-amino]-2,4,6-trimethylpyridinium hydroxide inner salt], the ED50 turned out to be 1.2 mg/kg in data set [1] (8 h, read-out: ED50, osmotic pressure (m osmol/kg/8 h)) and 4.7 mg/kg in data set [1] (8 h, read-out: ED50, volume of urine (ml/kg/8 h)). Moreover, the “Elimination in the urine: Cl” value in data set [1] (40 mg/kg, over 8 hours) is reported as 11.8 milliequivalents/kg/8 h. In addition, the “Elimination in the urine: K” value in data set [1] (40 mg/kg, over 8 hours) was 1.7 milliequivalents/kg/8 h. Moreover, the “Elimination in the urine: Na” value in data set [1] (40 mg/kg, over 8 hours) is listed as 9.1 milliequivalents/kg/8 h. Further, in data set [1] (40 mg/kg, over 8 hours), the “Osmotic pressure of urine” value was 29.7 osmotic millimols/kg/8 h. Further, in data set [1] (40 mg/kg, over 8 hours), the “Urine pH” value came out at 6.0. Also, in data set [1] (40 mg/kg, probang, 1 h), the “Elimination of urine, 1 h” value stood at 10.4 mL/kg. Moreover, the “Elimination of urine, 2 h” value in data set [1] (40 mg/kg, probang, 2 h) was 22.3 mL/kg. Also, the “Elimination of urine, 3 h” value in data set [1] (40 mg/kg, probang, 3 h) is 30.2 mL/kg. The “Elimination of urine, 4 h” value in data set [1] (40 mg/kg, probang, 4 h) was 36.0 mL/kg. Besides, in data set [1] (40 mg/kg, probang, 6 h), the “Elimination of urine, 6 h” value was determined as 41.5 mL/kg. Besides, in data set [1] (40 mg/kg, probang, 8 h), the “Elimination of urine, 8 h” value came out at 45.6 mL/kg. For the same compound, the Mortality is reported as 0/4 in data set [2] (female, 400 mg/kg); 0/4 in data set [2] (female, 800 mg/kg); 0/4 in data set [2] (male, 400 mg/kg); 0/4 in data set [2] (male, 800 mg/kg).
